Test results taken from US20250171457A1, “NITROGEN-CONTAINING HETEROCYCLIC COMPOUND HAVING NRF2 ACTIVATION EFFECT” (CHUGAI SEIYAKU KABUSHIKI KAISHA, priority 2022, published 2025).

Test system: Nrf2 transcriptional activity (pARE-Luc reporter) in HepG2 cells
Assay: In vitro Nrf2 transcriptional activity measurement by ARE-dependent reporter assay in HepG2 cell
Type: cell-based, human
Settings: Homo sapiens; HepG2 cells transfected with pARE-Luc, 4 hours at 37° C.; luciferase activity of Example 1-54 or Example 17-23 at 3.75 μM defined as 100%
Method: Test Example 1: In Vitro Nrf2 Transcriptional Activity Measurement by ARE-Dependent Reporter Assay in HepG2 Cell
A human liver cancer-derived cell line HepG2 was transfected with pGL4.37 vector (pARE-Luc, Promega Corp.) and incubated overnight at 37° C. in a humidified atmosphere containing 5% CO2. The cells were dissociated by trypsin treatment, inoculated to a 384-well plate supplemented with a test compound, and incubated at 37° C. for 4 hours. Then, Bright-Glo Reagent (Promega Corp.) was added to the plate, and luciferase activity was measured with Envision plate reader.
Luciferase activity obtained through the action of the compound of Example 1-54 or Example 17-23 at a concentration of 3.75 μM was defined as 100%. The luciferase activity of each well was converted to a response rate (%). The dose-response curve of the compound of each Example was prepared to calculate a 50% effective concentration (EC50).

SMILES	EC50 [nM]
O=C(O)c1cc(F)c(-c2cccc3c2OCN(C(=O)c2c(Cl)cc(N4CC(O)(C(F)(F)F)C4)cc2Cl)C3)cc1N1C2CCC1COC2 [Compound 1-12, 4-[3-[2,6-Dichloro-4-[3-hydroxy-3-(trifluoromethyl)azetidin-1-yl]benzoyl]-2,4-dihydro-1,3-benzoxazin-8-yl]-5-fluoro-2-(3-oxa-8-azabicyclo[3.2.1]octan-8-yl)benzoic acid]	16
O=C(O)c1cc(F)c(-c2cccc3c2OCN(C(=O)c2c(Cl)cc(N4CC5(CC5)C4)cc2Cl)C3)cc1N1C2CCC1COC2 [Compound 1-13, 4-[3-[4-(5-Azaspiro[2.3]hexan-5-yl)-2,6-dichlorobenzoyl]-2,4-dihydro-1,3-benzoxazin-8-yl]-5-fluoro-2-(3-oxa-8-azabicyclo[3.2.1]octan-8-yl)benzoic acid]	2.4
O=C(O)c1cc(F)c(-c2cccc3c2OCN(C(=O)c2c(Cl)cc(N4CC(OC(F)(F)F)C4)cc2Cl)C3)cc1N1C2CCC1COC2 [Compound 1-14, 4-[3-[2,6-Dichloro-4-[3-(trifluoromethoxy)azetidin-1-yl]benzoyl]-2,4-dihydro-1,3-benzoxazin-8-yl]-5-fluoro-2-(3-oxa-8-azabicyclo[3.2.1]octan-8-yl)benzoic acid]	4.4
CC1(C#N)CN(c2cc(Cl)c(C(=O)N3COc4c(cccc4-c4cc(N5C6CCC5COC6)c(C(=O)O)cc4F)C3)c(Cl)c2)C1 [Compound 1-15, 4-[3-[2,6-Dichloro-4-(3-cyano-3-methylazetidin-1-yl)benzoyl]-2,4-dihydro-1,3-benzoxazin-8-yl]-5-fluoro-2-(3-oxa-8-azabicyclo[3.2.1]octan-8-yl)benzoic acid]	2.7
O=C(O)c1cc(F)c(-c2cccc3c2OCN(C(=O)c2c(Cl)cc(N4CC(O)(c5ccccc5)C4)cc2Cl)C3)cc1N1C2CCC1COC2 [Compound 1-16, 4-[3-[2,6-Dichloro-4-(3-hydroxy-3-phenylazetidin-1-yl)benzoyl]-2,4-dihydro-1,3-benzoxazin-8-yl]-5-fluoro-2-(3-oxa-8-azabicyclo[3.2.1]octan-8-yl)benzoic acid]	11
O=C(O)c1cc(F)c(-c2cccc3c2OCN(C(=O)c2c(Cl)cc(N4CC(O)C4)cc2Cl)C3)cc1N1C2CCC1COC2 [Compound 1-17, 4-[3-[2,6-Dichloro-4-(3-hydroxyazetidin-1-yl)benzoyl]-2,4-dihydro-1,3-benzoxazin-8-yl]-5-fluoro-2-(3-oxa-8-azabicyclo[3.2.1]octan-8-yl)benzoic acid]	19
O=C(O)c1cc(F)c(-c2cccc3c2OCN(C(=O)c2c(Cl)cc(N4CC(F)(F)C4)cc2Cl)C3)cc1N1C2CCC1COC2 [Compound 1-19, 4-[3-[2,6-Dichloro-4-(3,3-difluoroazetidin-1-yl)benzoyl]-2,4-dihydro-1,3-benzoxazin-8-yl]-5-fluoro-2-(3-oxa-8-azabicyclo[3.2.1]octan-8-yl)benzoic acid]	6.3
O=C(O)c1cc(F)c(-c2cccc3c2OCN(C(=O)c2c(Cl)cc(N4CC(F)C4)cc2Cl)C3)cc1N1C2CCC1COC2 [Compound 1-20, 4-[3-[2,6-Dichloro-4-(3-fluoroazetidin-1-yl)benzoyl]-2,4-dihydro-1,3-benzoxazin-8-yl]-5-fluoro-2-(3-oxa-8-azabicyclo[3.2.1]octan-8-yl)benzoic acid]	3.2
CO[C@@H]1COC2(C1)CN(c1cc(Cl)c(C(=O)N3COc4c(cccc4-c4cc(N5C6CCC5COC6)c(C(=O)O)cc4F)C3)c(Cl)c1)C2 [Compound 1-22, 4-[3-[2,6-Dichloro-4-[(7S)-7-methoxy-5-oxa-2-azaspiro[3.4]octan-2-yl]benzoyl]-2,4-dihydro-1,3-benzoxazin-8-yl]-5-fluoro-2-(3-oxa-8-azabicyclo[3.2.1]octan-8-yl)benzoic acid]	2.1
CO[C@H]1COC2(C1)CN(c1cc(Cl)c(C(=O)N3COc4c(cccc4-c4cc(N5C6CCC5COC6)c(C(=O)O)cc4F)C3)c(Cl)c1)C2 [Compound 1-23, 4-[3-[2,6-Dichloro-4-[(7R)-7-methoxy-5-oxa-2-azaspiro[3.4]octan-2-yl]benzoyl]-2,4-dihydro-1,3-benzoxazin-8-yl]-5-fluoro-2-(3-oxa-8-azabicyclo[3.2.1]octan-8-yl)benzoic acid]	1.9
CO[C@H]1C[C@@]2(CN(c3cc(Cl)c(C(=O)N4COc5c(cccc5-c5cc(N6C7CCC6COC7)c(C(=O)O)cc5F)C4)c(Cl)c3)[C@@H]2C)C1 [Compound 1-24, 4-[3-[2,6-Dichloro-4-[(1R,4r,6R)-6-methoxy-1-methyl-2-azaspiro[3.3]heptan-2-yl]benzoyl]-2,4-dihydro-1,3-benzoxazin-8-yl]-5-fluoro-2-(3-oxa-8-azabicyclo[3.2.1]octan-8-yl)benzoic acid]	1.4
CO[C@H]1C[C@@]2(CN(c3cc(Cl)c(C(=O)N4COc5c(cccc5-c5cc(N6C7CCC6COC7)c(C(=O)O)cc5F)C4)c(Cl)c3)[C@H]2C)C1 [Compound 1-25, 4-[3-[2,6-Dichloro-4-[(1S,4r,6S)-6-methoxy-1-methyl-2-azaspiro[3.3]heptan-2-yl]benzoyl]-2,4-dihydro-1,3-benzoxazin-8-yl]-5-fluoro-2-(3-oxa-8-azabicyclo[3.2.1]octan-8-yl)benzoic acid]	1.5
CO[C@H]1C[C@]2(CN(c3cc(Cl)c(C(=O)N4COc5c(cccc5-c5cc(N6C7CCC6COC7)c(C(=O)O)cc5F)C4)c(Cl)c3)[C@@H]2C)C1 [Compound 1-26, 4-[3-[2,6-Dichloro-4-[(1R,4s,6S)-6-methoxy-1-methyl-2-azaspiro[3.3]heptan-2-yl]benzoyl]-2,4-dihydro-1,3-benzoxazin-8-yl]-5-fluoro-2-(3-oxa-8-azabicyclo[3.2.1]octan-8-yl)benzoic acid]	1.4
CO[C@H]1C[C@]2(CN(c3cc(Cl)c(C(=O)N4COc5c(cccc5-c5cc(N6C7CCC6COC7)c(C(=O)O)cc5F)C4)c(Cl)c3)[C@H]2C)C1 [Compound 1-27, 4-[3-[2,6-Dichloro-4-[(1S,4s,6R)-6-methoxy-1-methyl-2-azaspiro[3.3]heptan-2-yl]benzoyl]-2,4-dihydro-1,3-benzoxazin-8-yl]-5-fluoro-2-(3-oxa-8-azabicyclo[3.2.1]octan-8-yl)benzoic acid]	2.9
CO[C@@H]1CCOC12CN(c1cc(Cl)c(C(=O)N3COc4c(cccc4-c4cc(N5C6CCC5COC6)c(C(=O)O)cc4F)C3)c(Cl)c1)C2 [Compound 1-30, 4-[3-[2,6-Dichloro-4-[(8R)-8-methoxy-5-oxa-2-azaspiro[3.4]octan-2-yl]benzoyl]-2,4-dihydro-1,3-benzoxazin-8-yl]-5-fluoro-2-(3-oxa-8-azabicyclo[3.2.1]octan-8-yl)benzoic acid]	2.6
CO[C@H]1CCOC12CN(c1cc(Cl)c(C(=O)N3COc4c(cccc4-c4cc(N5C6CCC5COC6)c(C(=O)O)cc4F)C3)c(Cl)c1)C2 [Compound 1-31, 4-[3-[2,6-Dichloro-4-[(8S)-8-methoxy-5-oxa-2-azaspiro[3.4]octan-2-yl]benzoyl]-2,4-dihydro-1,3-benzoxazin-8-yl]-5-fluoro-2-(3-oxa-8-azabicyclo[3.2.1]octan-8-yl)benzoic acid]	1.9
O=C(O)c1cc(F)c(-c2cccc3c2OCN(C(=O)c2c(Cl)cc(N4CCNC(C(F)(F)F)C4)cc2Cl)C3)cc1N1C2CCC1COC2 (stereo not shown) [Compound 1-32, 4-[3-[2,6-Dichloro-4-[3-(trifluoromethyl)piperazin-1-yl]benzoyl]-2,4-dihydro-1,3-benzoxazin-8-yl]-5-fluoro-2-(3-oxa-8-azabicyclo[3.2.1]octan-8-yl)benzoic acid]	1.5
CN1CCN(c2cc(Cl)c(C(=O)N3COc4c(cccc4-c4cc(N5C6CCC5COC6)c(C(=O)O)cc4F)C3)c(Cl)c2)CC12COC2 [Compound 1-34, 4-[3-[2,6-Dichloro-4-(5-methyl-2-oxa-5,8-diazaspiro[3.5]nonan-8-yl)benzoyl]-2,4-dihydro-1,3-benzoxazin-8-yl]-5-fluoro-2-(3-oxa-8-azabicyclo[3.2.1]octan-8-yl)benzoic acid]	39
O=C(O)c1cc(F)c(-c2cccc3c2OCN(C(=O)c2c(Cl)cc(N4CCN(CC(F)(F)F)CC4)cc2Cl)C3)cc1N1C2CCC1COC2 [Compound 1-35, 4-[3-[2,6-Dichloro-4-[4-(2,2,2-trifluoroethyl)piperazin-1-yl]benzoyl]-2,4-dihydro-1,3-benzoxazin-8-yl]-5-fluoro-2-(3-oxa-8-azabicyclo[3.2.1]octan-8-yl)benzoic acid]	5.8
CN1CC2CCCC(C1)N2c1cc(Cl)c(C(=O)N2COc3c(cccc3-c3cc(N4C5CCC4COC5)c(C(=O)O)cc3F)C2)c(Cl)c1 [Compound 1-36, 4-[3-[2,6-Dichloro-4-(3-methyl-3,9-diazabicyclo[3.3.1]nonan-9-yl)benzoyl]-2,4-dihydro-1,3-benzoxazin-8-yl]-5-fluoro-2-(3-oxa-8-azabicyclo[3.2.1]octan-8-yl)benzoic acid]	1.8
O=C(O)c1cc(F)c(-c2cccc3c2OCN(C(=O)c2c(Cl)cc(N4CC5CCC(C4)O5)cc2Cl)C3)cc1N1C2CCC1COC2 [Compound 1-37, 4-[3-[2,6-Dichloro-4-(8-oxa-3-azabicyclo[3.2.1]octan-3-yl)benzoyl]-2,4-dihydro-1,3-benzoxazin-8-yl]-5-fluoro-2-(3-oxa-8-azabicyclo[3.2.1]octan-8-yl)benzoic acid]	2.1
O=C(O)c1cc(F)c(-c2cccc3c2OCN(C(=O)c2c(Cl)cc(N4CCOC5CC54)cc2Cl)C3)cc1N1C2CCC1COC2 (stereo not shown) [Compound 1-38, 4-[3-[2,6-Dichloro-4-(2-oxa-5-azabicyclo[4.1.0]heptan-5-yl)benzoyl]-2,4-dihydro-1,3-benzoxazin-8-yl]-5-fluoro-2-(3-oxa-8-azabicyclo[3.2.1]octan-8-yl)benzoic acid]	1.8
